Read-outs that look alike come from different tables or passages of the source.
How the values were obtained:
[1] = target: GST-Syk Full Protein (human) (Homo sapiens, UniProt P43405); assay: Syk kinase inhibition test (HTRF method); type: biochemical; conditions: read-out: sykHTRF ave IC50
Summary of the method: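 HTRF read-out: after EDTA termination and 1 h with XL665-streptavidin and Eu-anti-phosphotyrosine, the 665/620 nm ratio was measured. The reaction ran 30 min at 20–25 °C with final 6.4 nM human GST-Syk, 250 nM biotinylated peptide, 100 μM ATP, pH 7.0 HEPES buffer, 2% DMSO.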

[2] = system: cultured human mast cells; assay: Degranulation inhibition test using cultured human mast cells (IgE cross-linking, β-Hexosaminidase release); type: cell-based; conditions: Mast cell, cultured human mast cells, read-out: human degranulation ave. IC50
Summary of the method: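 Degranulation was triggered by anti-hIgE (10 μg/mL final, 30 min, 37 °C) after a 10-min compound pretreatment (DMSO 0.1%) of cord-blood CD34+-derived mast cells primed 5 days with IL-4 and IgE. β-Hexosaminidase in supernatant was measured with p-nitrophenyl-GlcNAc substrate (A405), expressed against water-lysed total; IC50 (M).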

[3] = HTRF, 100 μM ATP, 30 min room temperature, average
[4] = anti-hIgE stimulation, β-Hexosaminidase index, average

| SMILES | IC50 ([1]; Tables 1-x, compounds A) [µM] | IC50 ([2]; Tables 1-x, compounds A) [µM] | IC50 [1, 3] [µM] | IC50 [2, 4] [µM] |
| --- | --- | --- | --- | --- |
| Cc1ccnc(Nc2cccc(-c3cnc(CN4C[C@H](NCc5ccccc5)[C@@H](O)C4)s3)n2)c1 [Compound A-400] | 0.1 to 1 | 0.1 to 1 | – | – |
| Cc1ccnc(Nc2cccc(-c3cnc(CN4CCCCC4=O)s3)n2)c1 [Compound A-401] | > 1 | 0.1 to 1 | – | – |
| CNC(=O)CN1C(=O)OC[C@H]1c1ncc(-c2cccc(Nc3cc(C)ccn3)n2)s1 [Compound A-402] | > 1 | > 1 | – | – |
| Cc1ccnc(Nc2cccc(-c3cnc(N4CCN(C(=O)OC(C)(C)C)CC4)s3)n2)c1 [Compound A-403] | > 1 | > 1 | – | – |
| Cc1ccnc(Nc2cccc(-c3cnc([C@@H]4COC(=O)N4CC(=O)N4C[C@@H](O)[C@@H](O)C4)s3)n2)c1 [Compound A-404] | > 1 | > 1 | – | – |
| Cc1ccnc(Nc2cccc(-c3cnc([C@@H]4CN(C)C(=O)O4)s3)n2)c1 [Compound A-405] | 0.1 to 1 | 0.1 to 1 | – | – |
| Cc1ccnc(Nc2cccc(-c3cnc([C@@H]4COC(=O)N4CC(=O)O)s3)n2)c1 [Compound A-407] | > 1 | > 1 | – | – |
| Cc1ccnc(Nc2cccc(-c3cnc([C@@H]4COC(=O)N4CC(=O)N(C)C)s3)n2)c1 [Compound A-408] | > 1 | > 1 | – | – |
| Cc1ccnc(Nc2cccc(-c3cnc([C@@H]4CNC(=O)O4)s3)n2)c1 [Compound A-409, (S)-5-{5-[6-(4-methylpyridin-2-ylamino)pyridin-2-yl]thiazol-2-yl}oxazolidin-2-one] | < 0.1 | < 0.1 | – | – |
| Cc1ccnc(Nc2cccc(-c3cnc(N4CCN(C=O)CC4)s3)n2)c1 [Compound A-410] | 0.1 to 1 | < 0.1 | – | – |
| CC(=O)N[C@H]1CN(C(=O)COCc2ncc(-c3cccc(Nc4cc(C)ccn4)n3)s2)C[C@@H]1O [Compound A-411] | > 1 | > 1 | – | – |
| Cc1ccnc(Nc2cccc(-c3cnc(N4CCN(S(C)(=O)=O)CC4)s3)n2)c1 [Compound A-412] | 0.1 to 1 | 0.1 to 1 | – | – |
| Cc1ccnc(Nc2cccc(-c3cnc(N4CCN(C(=O)C5CCC(O)CC5)CC4)s3)n2)c1 (stereo not shown) [Compound A-413] | 0.1 to 1 | 0.1 to 1 | – | – |
| CC(=O)N[C@H]1CN(Cc2ncc(-c3cccc(Nc4cc(C)ccn4)n3)s2)C[C@@H]1O [Compound A-414] | 0.1 to 1 | 0.1 to 1 | – | – |
| Cc1ccnc(Nc2cccc(-c3cnc(CN4C(=O)CNCC4=O)s3)n2)c1 [Compound A-415] | 0.1 to 1 | 0.1 to 1 | – | – |
| Cc1ccnc(Nc2cccc(-c3cnc(CN4CCNC(=O)C4)s3)n2)c1 [Compound A-416, 4-{5-[6-(4-methylpyridin-2-ylamino)pyridin-2-yl]thiazol-2-ylmethyl}piperazin-2-one] | < 0.1 | < 0.1 | – | – |
| Cc1ccnc(Nc2cccc(-c3cnc(N4CCOCC4)s3)n2)c1 [Compound A-417, N-(4-methylpyridin-2-yl)-N-[6-(2-morpholin-4-ylthiazol-5-yl)pyridin-2-yl]amine] | < 0.1 | 0.1 to 1 | – | – |
| Cc1ccnc(Nc2cccc(-c3cnc(N4CCSCC4)s3)n2)c1 [Compound A-418] | 0.1 to 1 | 0.1 to 1 | – | – |
| CC(=O)N1CCN(c2ncc(-c3cccc(Nc4cc(C)ccn4)n3)s2)CC1 [Compound A-419, 1-(4-{5-[6-(4-methylpyridin-2-ylamino)pyridin-2-yl]thiazol-2-yl}piperazin-1-yl)ethanone] | < 0.1 | 0.1 to 1 | – | – |
| Cc1ccnc(Nc2cccc(-c3cnc(N4CCC(C(=O)N5CCC(O)CC5)CC4)s3)n2)c1 [Compound A-420] | 0.1 to 1 | > 1 | – | – |
| Cc1ccnc(Nc2cccc(-c3cnc(N4CCN(S(N)(=O)=O)CC4)s3)n2)c1 [Compound A-421, 4-{5-[6-(4-methylpyridin-2-ylamino)pyridin-2-yl]thiazol-2-yl}piperazine-1-sulfonamide] | < 0.1 | 0.1 to 1 | – | – |
| COc1ccnc(Nc2cccc(-c3cnc(N4CCOCC4)s3)n2)c1 [Compound A-422, N-(4-methoxypyridin-2-yl)-N-{6-[2-(morpholin-4-yl)thiazol-5-yl]pyridin-2-yl}amine] | < 0.1 | 0.1 to 1 | – | – |
| Cc1ccnc(Nc2cccc(-c3cnc(N4C[C@@H](O)[C@@H](O)C4)s3)n2)c1 [Compound A-423, (3R,4S)-1-{5-[6-(4-methylpyridin-2-ylamino)pyridin-2-yl]thiazol-2-yl}pyrrolidine-3,4-diol] | < 0.1 | 0.1 to 1 | – | – |
| CC(=O)N(C)c1ncc(-c2cccc(Nc3cc(C)ccn3)n2)s1 [Compound A-424, N-methyl-N-{5-[6-(4-methylpyridin-2-ylamino)pyridin-2-yl]thiazol-2-yl}acetamide] | – | – | < 0.1 | 0.1 to 1 |
| Cc1ccnc(Nc2cccc(-c3sc(N4CCOCC4)nc3C)n2)c1 [Compound A-425, N-[6-(4-methyl-2-morpholin-4-ylthiazol-5-yl)pyridin-2-yl]-N-(4-methylpyridin-2-yl)amine] | – | – | < 0.1 | 0.1 to 1 |
| CNc1ncc(-c2cccc(Nc3cc(C)ccn3)n2)s1 [Compound A-426, N-methyl-N-{5-[6-(4-methylpyridin-2-ylamino)pyridin-2-yl]thiazol-2-yl}amine] | – | – | < 0.1 | 0.1 to 1 |
